Data as given in US8415469B2, “Compounds and methods for kinase modulation, and indications therefor” (Plexxikon Inc., priority 2005, dated 2013).

Experiments:
Assay type in all cases: biochemical
[1] = target: T1, TEC (Homo sapiens, UniProt P42680); assay: AlphaScreen kinase assay, TEC; settings: read-out: IC50, activity toward kinase TEC
T1 sequence (P42680 1-631): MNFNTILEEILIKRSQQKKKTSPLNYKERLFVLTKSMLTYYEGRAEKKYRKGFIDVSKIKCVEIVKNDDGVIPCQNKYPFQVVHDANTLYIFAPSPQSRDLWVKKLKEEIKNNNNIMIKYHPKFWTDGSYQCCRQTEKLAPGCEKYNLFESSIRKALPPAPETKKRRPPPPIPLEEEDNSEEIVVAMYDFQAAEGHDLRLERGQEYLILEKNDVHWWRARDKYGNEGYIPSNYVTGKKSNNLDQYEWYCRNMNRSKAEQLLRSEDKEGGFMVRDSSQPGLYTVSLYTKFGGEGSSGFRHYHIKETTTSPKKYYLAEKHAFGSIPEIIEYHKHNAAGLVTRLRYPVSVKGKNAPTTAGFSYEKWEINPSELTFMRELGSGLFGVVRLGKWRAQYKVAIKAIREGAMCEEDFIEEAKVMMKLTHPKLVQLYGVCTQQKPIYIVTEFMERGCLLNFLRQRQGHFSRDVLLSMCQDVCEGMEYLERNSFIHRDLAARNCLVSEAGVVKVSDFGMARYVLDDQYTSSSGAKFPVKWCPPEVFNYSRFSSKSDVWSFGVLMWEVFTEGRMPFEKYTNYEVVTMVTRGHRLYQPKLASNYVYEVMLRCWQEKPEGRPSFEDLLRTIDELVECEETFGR
Outline: (§1)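 Biotinylated peptide substrate is phosphorylated by kinase; anti-phosphopeptide antibody on acceptor beads and streptavidin donor beads bring emission when substrate is phosphorylated. Inhibition lowers acceptor signal. Compounds from 20 mM DMSO stock tested as 8-point 1:3 serial dilutions.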

[2] = target: Tie2 (Homo sapiens, UniProt Q02763); assay: AlphaScreen kinase assay, Tie2; settings: read-out: IC50, activity toward kinase Tie2
Excerpt: (§2) AlphaScreen assay was used to screen additional kinases. The assay is similarly dependent on the phosphorylation of a peptide substrate. In this assay, an antibody that recognizes phosphorylated substrate is bound to an acceptor bead. The peptide substrate is attached to biotin, which binds to a donor head that contains streptavidin. Thus phosphorylated substrate is bound by antibody and streptavidin, bringing the donor and acceptor heads into close proximity when kinase is not inhibited. The donor produces singlet oxygen which results in emission from the acceptor when they are in close proximity. Conversely, when kinase is inhibited, the donor and acceptor beads are not associated and the emission from the acceptor is reduced.
(§3) AlphaScreen assays were done using compounds dissolved in DMSO to a concentration of 20 mM. The compounds were diluted accordingly to the desired final concentrations in each sample well, using 1:3 serial dilution for a total of 8 concentration points.

[3] = target: T2, IKK beta (Homo sapiens, UniProt O14920); assay: AlphaScreen kinase assay, IKK beta; settings: read-out: IC50, activity toward kinase IKK beta
T2 sequence (O14920 1-756): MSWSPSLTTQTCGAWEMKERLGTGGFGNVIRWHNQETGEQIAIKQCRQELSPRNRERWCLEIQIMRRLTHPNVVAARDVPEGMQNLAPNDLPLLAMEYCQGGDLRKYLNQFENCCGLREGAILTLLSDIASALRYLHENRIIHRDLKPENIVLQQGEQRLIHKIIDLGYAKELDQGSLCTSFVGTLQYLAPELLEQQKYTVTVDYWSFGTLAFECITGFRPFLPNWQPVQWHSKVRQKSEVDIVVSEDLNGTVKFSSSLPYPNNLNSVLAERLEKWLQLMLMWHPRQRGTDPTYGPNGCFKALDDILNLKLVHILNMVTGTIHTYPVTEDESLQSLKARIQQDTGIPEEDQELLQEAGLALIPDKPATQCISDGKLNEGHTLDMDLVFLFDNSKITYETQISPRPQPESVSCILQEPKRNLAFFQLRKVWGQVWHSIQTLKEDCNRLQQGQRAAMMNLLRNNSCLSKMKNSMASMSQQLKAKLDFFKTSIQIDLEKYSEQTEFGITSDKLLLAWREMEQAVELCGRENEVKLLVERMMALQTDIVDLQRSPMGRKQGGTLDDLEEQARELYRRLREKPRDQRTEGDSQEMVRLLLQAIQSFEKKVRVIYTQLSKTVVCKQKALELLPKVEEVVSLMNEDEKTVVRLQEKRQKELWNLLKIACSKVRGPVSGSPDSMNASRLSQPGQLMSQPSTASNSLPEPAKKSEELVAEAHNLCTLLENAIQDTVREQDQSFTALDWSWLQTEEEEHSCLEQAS
Method: AlphaScreen assays were done using compounds dissolved in DMSO to a concentration of 20 mM. The compounds were diluted accordingly to the desired final concentrations in each sample well, using 1:3 serial dilution for a total of 8 concentration points. Plates were prepared such that each kinase reaction is 20 μl in 1× kinase buffer, 5% DMSO and 10 μM ATP. After incubation of the kinase reaction for 1 hour at room temperature, 5 μl of donor beads in stop buffer (50 mM EDTA in 1× kinase buffer) was added, the sample was mixed and incubated for 20 minutes at room temperature before adding 5 μl of acceptor beads in stop buffer. The samples were incubated for 60 minutes at room temperature and the signal per well was read on AlphaQuest reader.

[4] = target: Csk (Homo sapiens, UniProt P41240); assay: AlphaScreen kinase assay, Csk; settings: read-out: IC50, activity toward kinase Csk
Excerpt: as §2, §3

[5] = target: Frk (Homo sapiens, UniProt P42685); assay: AlphaScreen kinase assay, Frk; settings: read-out: IC50, activity toward kinase Frk
Outline: as §1

[6] = target: Brk (Homo sapiens, UniProt Q13882); assay: AlphaScreen kinase assay, Brk; settings: read-out: IC50, activity toward kinase Brk
Outline: as §1

Sequence of Tie2 (Q02763 23-1124): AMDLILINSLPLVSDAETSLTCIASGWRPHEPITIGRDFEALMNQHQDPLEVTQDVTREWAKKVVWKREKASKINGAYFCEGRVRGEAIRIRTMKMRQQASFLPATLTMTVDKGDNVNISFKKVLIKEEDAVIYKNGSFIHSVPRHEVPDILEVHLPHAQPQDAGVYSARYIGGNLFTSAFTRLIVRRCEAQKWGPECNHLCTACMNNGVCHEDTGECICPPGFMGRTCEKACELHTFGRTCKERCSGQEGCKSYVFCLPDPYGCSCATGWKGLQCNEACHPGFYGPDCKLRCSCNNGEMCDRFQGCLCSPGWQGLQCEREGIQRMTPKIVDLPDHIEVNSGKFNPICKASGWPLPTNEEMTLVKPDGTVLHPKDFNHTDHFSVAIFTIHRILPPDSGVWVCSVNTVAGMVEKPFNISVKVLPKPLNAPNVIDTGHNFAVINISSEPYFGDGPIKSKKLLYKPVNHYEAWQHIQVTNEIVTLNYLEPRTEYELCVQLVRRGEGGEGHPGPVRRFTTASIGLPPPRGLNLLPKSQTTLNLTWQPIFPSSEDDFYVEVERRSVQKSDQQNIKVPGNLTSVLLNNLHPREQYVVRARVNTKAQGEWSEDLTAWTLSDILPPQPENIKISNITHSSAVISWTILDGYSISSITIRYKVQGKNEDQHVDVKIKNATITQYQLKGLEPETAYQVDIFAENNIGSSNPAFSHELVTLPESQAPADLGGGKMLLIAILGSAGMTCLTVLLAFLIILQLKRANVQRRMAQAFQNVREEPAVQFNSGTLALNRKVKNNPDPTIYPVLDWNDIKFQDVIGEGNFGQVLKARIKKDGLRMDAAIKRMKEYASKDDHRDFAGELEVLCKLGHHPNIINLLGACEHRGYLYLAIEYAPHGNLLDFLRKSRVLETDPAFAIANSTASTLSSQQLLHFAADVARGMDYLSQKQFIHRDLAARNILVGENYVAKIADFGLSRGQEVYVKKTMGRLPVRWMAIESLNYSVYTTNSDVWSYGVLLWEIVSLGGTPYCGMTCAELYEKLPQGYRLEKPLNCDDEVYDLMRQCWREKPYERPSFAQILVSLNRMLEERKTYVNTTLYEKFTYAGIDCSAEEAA
Sequence of Brk (Q13882 whole entry): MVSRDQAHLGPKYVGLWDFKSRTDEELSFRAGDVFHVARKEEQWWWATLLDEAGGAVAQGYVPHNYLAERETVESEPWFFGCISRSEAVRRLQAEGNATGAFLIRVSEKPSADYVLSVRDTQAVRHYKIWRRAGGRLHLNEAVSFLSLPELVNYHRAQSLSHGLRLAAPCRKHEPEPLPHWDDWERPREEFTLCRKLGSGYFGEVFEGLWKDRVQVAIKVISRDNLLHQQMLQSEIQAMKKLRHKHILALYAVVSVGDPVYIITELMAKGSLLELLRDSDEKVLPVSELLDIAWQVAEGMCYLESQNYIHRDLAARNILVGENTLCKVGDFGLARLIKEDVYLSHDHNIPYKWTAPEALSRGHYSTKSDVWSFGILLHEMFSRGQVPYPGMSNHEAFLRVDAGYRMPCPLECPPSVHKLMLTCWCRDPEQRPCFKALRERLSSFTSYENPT
Sequence of Csk (P41240 whole entry): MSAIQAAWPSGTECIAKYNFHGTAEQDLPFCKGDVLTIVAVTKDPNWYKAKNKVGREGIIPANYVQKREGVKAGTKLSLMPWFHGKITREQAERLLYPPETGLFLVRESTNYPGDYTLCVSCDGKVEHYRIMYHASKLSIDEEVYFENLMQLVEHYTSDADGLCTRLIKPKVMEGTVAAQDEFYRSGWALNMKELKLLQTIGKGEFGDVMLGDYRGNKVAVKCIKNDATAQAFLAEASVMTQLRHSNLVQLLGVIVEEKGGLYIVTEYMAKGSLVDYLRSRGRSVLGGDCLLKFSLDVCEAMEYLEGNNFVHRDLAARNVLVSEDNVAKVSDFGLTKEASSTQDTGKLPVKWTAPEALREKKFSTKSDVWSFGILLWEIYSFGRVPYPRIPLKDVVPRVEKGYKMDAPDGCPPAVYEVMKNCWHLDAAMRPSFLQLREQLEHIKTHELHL
Sequence of Frk (P42685 whole entry): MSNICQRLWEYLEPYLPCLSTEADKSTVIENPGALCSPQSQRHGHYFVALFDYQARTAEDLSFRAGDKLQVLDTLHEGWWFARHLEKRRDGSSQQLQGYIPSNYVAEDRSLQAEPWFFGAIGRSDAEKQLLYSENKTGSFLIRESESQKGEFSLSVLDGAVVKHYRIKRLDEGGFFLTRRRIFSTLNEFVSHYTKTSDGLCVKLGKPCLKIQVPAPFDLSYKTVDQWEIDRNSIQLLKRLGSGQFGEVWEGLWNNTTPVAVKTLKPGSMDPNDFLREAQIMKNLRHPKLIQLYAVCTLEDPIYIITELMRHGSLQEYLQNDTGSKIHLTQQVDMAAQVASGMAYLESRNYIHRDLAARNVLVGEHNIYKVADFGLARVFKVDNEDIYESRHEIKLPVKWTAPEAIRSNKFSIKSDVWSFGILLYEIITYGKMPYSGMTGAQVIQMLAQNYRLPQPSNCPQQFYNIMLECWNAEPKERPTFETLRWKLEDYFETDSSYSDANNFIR

In the case of `Cc1ccccc1C(=O)c1c[nH]c2nccc(-c3cccc(N)c3)c12` [Compound P-0044], the IC50 [1] is reported as at most 10 µM.

Molecule `CCCC(=O)Nc1ccc(F)c(Cc2c[nH]c3ncc(-c4cccnc4)cc23)c1F` [Compound P-1280] has an IC50 [2] of at most 10 µM.

In the case of `NC(=O)c1ccc(-c2ccnc3[nH]cc(C(=O)c4cc(F)ccc4F)c23)cc1` [Compound P-0013], the IC50 [3] is reported as at most 10 µM.

For `NC(=O)c1ccc(-c2ccnc3[nH]cc(C(=O)c4ccccc4F)c23)cc1` [Compound P-0014], the IC50 [3] was at most 10 µM.

`Cc1ccccc1C(=O)c1c[nH]c2nccc(-c3ccc(C(N)=O)cc3)c12` [Compound P-0017] showed an IC50 [1] of at most 10 µM.

In the case of `Nc1ccnc2[nH]cc(C(=O)c3ccccc3)c12` [Compound P-0029], the IC50 [3] is reported as at most 10 µM.

Molecule `CCCS(=O)(=O)Nc1ccc(F)c(C(=O)c2c[nH]c3ncccc23)c1F` [Compound P-0007, Propane-1-sulfonic acid [2,4-difluoro-3-(1H-pyrrolo[2,3-b]pyridine-3-carbonyl)-phenyl]-amide] has an IC50 [4] of at most 10 µM, an IC50 [5] of at most 10 µM and an IC50 [3] of at most 10 µM. The IC50 [6] was at most 10 µM.

For `Fc1cc(F)cc(-c2ccnc3[nH]cc(Sc4ccccn4)c23)c1` [Compound P-0106], the IC50 [3] was at most 10 µM.

`COc1cc(OC)cc(C(=O)c2c[nH]c3ncc(-c4cccc(NS(C)(=O)=O)c4)cc23)c1` [Compound P-1426, N-{3-[3-(3,5-Dimethoxy-benzoyl)-1H-pyrrolo[2,3-b]pyridin-5-yl]-phenyl}-methanesulfonamide] showed an IC50 [4] of at most 10 µM and an IC50 [2] of at most 10 µM.

With `CCCS(=O)(=O)Nc1ccc(F)c(C(=O)c2c[nH]c3ncc(-c4cccnc4)cc23)c1F` [Compound P-0088, Propane-1-sulfonic acid [2,4-difluoro-3-(5-pyridin-3-yl-1H-pyrrolo[2,3-b]pyridine-3-carbonyl)-phenyl]-amide] the IC50 [1] was at most 10 µM.

Molecule `COc1cccc(C(=O)c2c[nH]c3ncc(-c4cccc(NC(C)=O)c4)cc23)c1F` [Compound P-1336, N-{3-[3-(2-Fluoro-3-methoxy-benzoyl)-1H-pyrrolo[2,3-b]pyridin-5-yl]-phenyl}-acetamide] has an IC50 [4] of at most 10 µM, an IC50 [5] of at most 10 µM and an IC50 [6] of at most 10 µM. For the same molecule, the IC50 [2] was at most 10 µM.

`OCCOc1ccc(F)c(Cc2c[nH]c3ncc(-c4cccnc4)cc23)c1F` [Compound P-1394, 2-[2,4-Difluoro-3-(5-pyridin-3-yl-1H-pyrrolo[2,3-b]pyridin-3-ylmethyl)-phenoxy]-ethanol] showed an IC50 [4] of at most 10 µM, an IC50 [5] of at most 10 µM and an IC50 [6] of at most 10 µM. The IC50 [2] was at most 10 µM.

In the case of `CN(C)S(=O)(=O)Nc1ccc(F)c(Cc2c[nH]c3ncc(-c4cccnc4)cc23)c1F` [Compound P-0166], the IC50 [1] is reported as at most 10 µM.

Work on `O=C(O)/C=C/c1cccc(-c2cnc3[nH]cc(C(=O)c4ccccc4F)c3c2)c1` [Compound P-0033] yielded an IC50 [1] of at most 10 µM.

In the case of `CCCS(=O)(=O)Nc1ccc(F)c(C(=O)c2c[nH]c3ncc(OC)cc23)c1F` [Compound P-0806, Propane-1-sulfonic acid [2,4-difluoro-3-(5-methoxy-1H-pyrrolo[2,3-b]pyridine-3-carbonyl)-phenyl]-amide], the IC50 [4] is reported as at most 10 µM, the IC50 [6] is reported as at most 10 µM and the IC50 [2] is reported as at most 10 µM.

With `CCCCNC(=O)Nc1ccc(F)c(C(=O)c2c[nH]c3ncc(-c4cccnc4)cc23)c1F` [Compound P-1318, 1-Butyl-3-[2,4-difluoro-3-(5-pyridin-3-yl-1H-pyrrolo[2,3-b]pyridine-3-carbonyl)-phenyl]-urea] the IC50 [5] was at most 10 µM and the IC50 [6] was at most 10 µM.
